Test results from ChEMBL document CHEMBL1909046, “DrugMatrix in vitro pharmacology data”.

How the values were obtained:
[1] = DRUGMATRIX: Sodium/nucleoside co-transporter radioligand binding (ligand: nitrobenzylthioinosine); assay type: cell membranes, Cavia porcellus, Dunkin-Hartley, Cerebral cortex, Membrane; conditions: Not Active = under 50% inhibition at 10 µM
[2] = molecular target: T1, Alpha-2C adrenergic receptor (Homo sapiens, UniProt P18825); experiment: DRUGMATRIX: Adrenergic Alpha-2C radioligand binding (ligand: [3H] MK-912); assay type: cell membranes, Sf9, Membrane; conditions: sf9
T1 sequence (P18825 whole entry): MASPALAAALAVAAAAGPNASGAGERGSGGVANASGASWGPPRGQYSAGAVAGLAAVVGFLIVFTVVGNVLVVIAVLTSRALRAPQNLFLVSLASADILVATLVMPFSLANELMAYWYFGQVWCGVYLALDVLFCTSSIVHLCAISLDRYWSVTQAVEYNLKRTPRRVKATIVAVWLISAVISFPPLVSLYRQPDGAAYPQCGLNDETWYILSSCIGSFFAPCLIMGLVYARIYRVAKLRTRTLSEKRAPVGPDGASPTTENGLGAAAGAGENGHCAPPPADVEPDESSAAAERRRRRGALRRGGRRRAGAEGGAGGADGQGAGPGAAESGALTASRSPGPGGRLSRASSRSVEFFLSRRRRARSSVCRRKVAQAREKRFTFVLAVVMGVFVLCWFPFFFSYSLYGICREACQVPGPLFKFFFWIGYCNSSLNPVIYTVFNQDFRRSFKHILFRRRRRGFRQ

Thromboxane-A synthase = molecular target: T2, Thromboxane-A synthase (Homo sapiens, UniProt P24557); experiment: biochemical; assay type: tissue-based, Platelet;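 also: enzyme inhibition assay with PGH2 supplied as substrate; in other assays of this panel Not Active means under 50% inhibition at 10 µM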
T2 sequence (P24557 whole entry): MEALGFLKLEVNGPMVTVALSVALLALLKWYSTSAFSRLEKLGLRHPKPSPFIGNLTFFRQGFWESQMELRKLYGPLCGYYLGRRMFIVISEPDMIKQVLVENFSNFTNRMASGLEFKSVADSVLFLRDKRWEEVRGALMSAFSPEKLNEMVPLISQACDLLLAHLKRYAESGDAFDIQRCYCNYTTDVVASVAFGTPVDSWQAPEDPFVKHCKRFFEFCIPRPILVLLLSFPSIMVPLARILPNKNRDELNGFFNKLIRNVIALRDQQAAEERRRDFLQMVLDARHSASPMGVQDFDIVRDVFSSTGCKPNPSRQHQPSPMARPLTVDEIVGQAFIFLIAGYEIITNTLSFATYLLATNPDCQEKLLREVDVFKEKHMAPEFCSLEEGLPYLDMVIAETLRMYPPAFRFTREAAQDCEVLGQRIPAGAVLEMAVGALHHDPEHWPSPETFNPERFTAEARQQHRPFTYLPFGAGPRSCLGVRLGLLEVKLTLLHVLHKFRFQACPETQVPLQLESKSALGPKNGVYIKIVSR

[3] = molecular target: C-C chemokine receptor type 2 (Homo sapiens, UniProt P41597); assay type: cell membranes, CHO-K1, Membrane; also: in other assays of this panel Not Active means under 50% inhibition at 10 µM
[4] = molecular target: C-C chemokine receptor type 5 (Homo sapiens, UniProt P51681); assay type: cell membranes, Membrane; conditions: hek293; also: in other assays of this panel Not Active means under 50% inhibition at 10 µM
[5] = molecular target: T3, C-X-C chemokine receptor type 2 (Homo sapiens, UniProt P25025); assay type: cell membranes, Membrane; conditions: cho-k1; also: in other assays of this panel Not Active means under 50% inhibition at 10 µM
T3 sequence (P25025 whole entry): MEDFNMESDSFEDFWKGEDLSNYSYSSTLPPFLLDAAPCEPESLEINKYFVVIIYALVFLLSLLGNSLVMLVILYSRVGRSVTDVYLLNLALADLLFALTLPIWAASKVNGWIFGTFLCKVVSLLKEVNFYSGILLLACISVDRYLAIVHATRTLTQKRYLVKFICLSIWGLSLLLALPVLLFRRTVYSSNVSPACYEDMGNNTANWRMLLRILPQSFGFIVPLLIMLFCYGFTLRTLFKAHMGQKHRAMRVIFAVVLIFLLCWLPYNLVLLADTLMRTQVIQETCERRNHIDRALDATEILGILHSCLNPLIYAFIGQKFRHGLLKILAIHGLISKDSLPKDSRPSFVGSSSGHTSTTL

[6] = molecular target: Sodium-dependent dopamine transporter (Homo sapiens, UniProt Q01959); experiment: DRUGMATRIX: Dopamine Transporter radioligand binding (ligand: [125I] RTI-55); assay type: cell membranes, CHO-K1, Membrane; conditions: cho-k1; Not Active = under 50% inhibition at 10 µM
Melanocortin receptor 3 = Melanocortin receptor 3 (Homo sapiens, UniProt P41968); assay type: cell membranes, Membrane; conditions: hek293; also: in other assays of this panel Not Active means under 50% inhibition at 10 µM
[7] = DRUGMATRIX: Platelet-Derived Growth Factor (PDGF) radioligand binding (ligand: [125I] PDGF); assay type: cell-based; conditions: nih3t3; Not Active = under 50% inhibition at 10 µM
Progesterone receptor = molecular target: T4, Progesterone receptor (Bos taurus, UniProt Q690N0); experiment: DRUGMATRIX: Progesterone radioligand binding (ligand: [3H] R-5020); assay type: tissue-based, Uterus; conditions: Not Active = under 50% inhibition at 10 µM
T4 sequence (Q690N0 whole entry): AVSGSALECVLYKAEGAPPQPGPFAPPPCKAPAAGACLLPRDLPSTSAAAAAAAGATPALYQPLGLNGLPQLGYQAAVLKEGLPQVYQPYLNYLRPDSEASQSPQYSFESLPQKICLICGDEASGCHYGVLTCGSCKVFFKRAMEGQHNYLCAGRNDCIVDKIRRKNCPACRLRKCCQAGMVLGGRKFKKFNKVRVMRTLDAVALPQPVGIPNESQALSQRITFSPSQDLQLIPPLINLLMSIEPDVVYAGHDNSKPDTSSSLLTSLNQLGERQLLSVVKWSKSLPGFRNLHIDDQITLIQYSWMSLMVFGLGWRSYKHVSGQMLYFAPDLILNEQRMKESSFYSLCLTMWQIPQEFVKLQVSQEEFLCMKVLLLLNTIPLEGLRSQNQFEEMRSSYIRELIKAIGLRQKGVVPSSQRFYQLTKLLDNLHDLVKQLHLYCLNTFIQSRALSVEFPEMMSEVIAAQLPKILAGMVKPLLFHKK

[8] = molecular target: Mitogen-activated protein kinase 3 (Homo sapiens, UniProt P27361); experiment: DRUGMATRIX: Protein Serine/Threonine Kinase, ERK1 enzyme inhibition (substrate: Myelin Basic Protein); parameters: species or system Escherichia coli; conditions: Not Active = under 50% inhibition at 10 µM
[9] = molecular target: Mitogen-activated protein kinase 1 (Homo sapiens, UniProt P28482); experiment: DRUGMATRIX: Protein Serine/Threonine Kinase, ERK2 enzyme inhibition (substrate: Myelin Basic Protein); parameters: species or system Escherichia coli; conditions: Not Active = under 50% inhibition at 10 µM
[10] = molecular target: Mitogen-activated protein kinase 14 (Homo sapiens, UniProt Q16539); parameters: species or system Escherichia coli
[11] = molecular target: Receptor tyrosine-protein kinase erbB-2 (Homo sapiens, UniProt P04626); experiment: biochemical; assay type: cell-based, Insect cells; conditions: insect cells
Chain of Receptor tyrosine-protein kinase erbB-2 (P04626 whole entry): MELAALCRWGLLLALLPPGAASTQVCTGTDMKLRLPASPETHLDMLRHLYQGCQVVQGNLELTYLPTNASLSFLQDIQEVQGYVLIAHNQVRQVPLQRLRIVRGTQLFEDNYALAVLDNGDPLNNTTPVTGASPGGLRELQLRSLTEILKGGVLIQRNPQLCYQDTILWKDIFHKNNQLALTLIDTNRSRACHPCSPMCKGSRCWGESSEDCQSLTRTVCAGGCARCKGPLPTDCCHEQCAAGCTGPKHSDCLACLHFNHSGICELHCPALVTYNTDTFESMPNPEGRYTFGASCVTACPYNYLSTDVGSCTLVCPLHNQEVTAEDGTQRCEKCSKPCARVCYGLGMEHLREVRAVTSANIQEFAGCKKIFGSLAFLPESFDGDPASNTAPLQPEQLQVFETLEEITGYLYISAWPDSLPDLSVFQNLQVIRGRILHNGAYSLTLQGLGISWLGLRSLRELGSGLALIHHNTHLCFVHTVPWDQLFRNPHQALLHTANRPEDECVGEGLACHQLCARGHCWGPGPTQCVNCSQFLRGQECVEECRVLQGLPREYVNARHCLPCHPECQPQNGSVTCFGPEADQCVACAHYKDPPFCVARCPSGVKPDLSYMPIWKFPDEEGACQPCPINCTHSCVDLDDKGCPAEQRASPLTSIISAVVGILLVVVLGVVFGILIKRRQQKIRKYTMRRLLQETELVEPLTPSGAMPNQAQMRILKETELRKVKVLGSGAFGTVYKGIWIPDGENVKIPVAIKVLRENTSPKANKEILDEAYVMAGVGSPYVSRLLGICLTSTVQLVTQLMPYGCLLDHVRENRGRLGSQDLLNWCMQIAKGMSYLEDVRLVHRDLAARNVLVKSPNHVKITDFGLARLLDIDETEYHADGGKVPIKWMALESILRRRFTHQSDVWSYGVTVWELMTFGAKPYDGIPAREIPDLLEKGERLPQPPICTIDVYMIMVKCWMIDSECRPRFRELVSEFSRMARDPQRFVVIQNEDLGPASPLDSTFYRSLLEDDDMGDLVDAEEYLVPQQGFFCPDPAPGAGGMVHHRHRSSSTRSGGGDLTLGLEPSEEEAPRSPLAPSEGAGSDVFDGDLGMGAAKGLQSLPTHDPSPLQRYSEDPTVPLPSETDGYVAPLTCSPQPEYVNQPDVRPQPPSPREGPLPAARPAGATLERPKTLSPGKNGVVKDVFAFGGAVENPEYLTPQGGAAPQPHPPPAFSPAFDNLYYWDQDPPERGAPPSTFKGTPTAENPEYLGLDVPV

Chain of Mitogen-activated protein kinase 3 (P27361 whole entry): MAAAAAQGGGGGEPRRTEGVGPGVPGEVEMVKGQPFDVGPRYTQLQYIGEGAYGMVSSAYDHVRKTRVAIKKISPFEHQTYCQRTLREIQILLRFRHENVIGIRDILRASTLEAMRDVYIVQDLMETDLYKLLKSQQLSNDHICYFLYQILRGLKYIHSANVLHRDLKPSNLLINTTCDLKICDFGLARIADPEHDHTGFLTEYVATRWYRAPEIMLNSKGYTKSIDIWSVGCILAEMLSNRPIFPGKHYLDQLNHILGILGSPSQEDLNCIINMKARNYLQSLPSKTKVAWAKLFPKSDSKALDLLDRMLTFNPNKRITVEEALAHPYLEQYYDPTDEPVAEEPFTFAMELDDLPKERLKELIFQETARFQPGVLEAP
Chain of Mitogen-activated protein kinase 1 (P28482 whole entry): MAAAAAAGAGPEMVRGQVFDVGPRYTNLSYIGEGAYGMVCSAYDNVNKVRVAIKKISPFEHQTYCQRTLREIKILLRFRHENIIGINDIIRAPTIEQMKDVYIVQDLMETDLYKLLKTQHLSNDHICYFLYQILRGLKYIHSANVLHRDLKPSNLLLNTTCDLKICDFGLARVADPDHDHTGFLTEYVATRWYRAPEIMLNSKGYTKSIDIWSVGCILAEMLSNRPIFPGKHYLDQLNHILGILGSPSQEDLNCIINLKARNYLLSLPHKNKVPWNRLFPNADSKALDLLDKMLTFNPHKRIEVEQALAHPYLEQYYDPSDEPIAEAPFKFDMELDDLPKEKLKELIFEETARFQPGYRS
Chain of C-C chemokine receptor type 5 (P51681 whole entry): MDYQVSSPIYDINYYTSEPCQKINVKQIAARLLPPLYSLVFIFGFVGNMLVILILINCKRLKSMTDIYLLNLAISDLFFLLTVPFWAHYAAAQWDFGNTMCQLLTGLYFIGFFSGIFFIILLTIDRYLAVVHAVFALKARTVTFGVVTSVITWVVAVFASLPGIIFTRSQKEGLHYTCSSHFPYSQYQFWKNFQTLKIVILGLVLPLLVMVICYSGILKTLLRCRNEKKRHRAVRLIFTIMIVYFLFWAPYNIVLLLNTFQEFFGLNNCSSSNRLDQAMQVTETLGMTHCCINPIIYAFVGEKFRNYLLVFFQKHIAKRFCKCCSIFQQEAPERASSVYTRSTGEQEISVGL
Chain of C-C chemokine receptor type 2 (P41597 whole entry): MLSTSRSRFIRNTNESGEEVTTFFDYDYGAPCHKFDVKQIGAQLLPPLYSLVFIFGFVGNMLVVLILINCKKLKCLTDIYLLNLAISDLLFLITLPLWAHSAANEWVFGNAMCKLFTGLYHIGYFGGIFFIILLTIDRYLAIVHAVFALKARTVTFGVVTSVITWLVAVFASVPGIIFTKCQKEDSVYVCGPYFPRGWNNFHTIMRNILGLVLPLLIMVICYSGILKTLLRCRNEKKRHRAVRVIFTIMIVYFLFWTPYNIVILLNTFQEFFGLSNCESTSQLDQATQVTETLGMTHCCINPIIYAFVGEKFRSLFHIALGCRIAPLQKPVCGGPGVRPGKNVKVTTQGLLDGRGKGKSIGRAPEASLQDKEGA
Chain of Melanocortin receptor 3 (P41968 whole entry): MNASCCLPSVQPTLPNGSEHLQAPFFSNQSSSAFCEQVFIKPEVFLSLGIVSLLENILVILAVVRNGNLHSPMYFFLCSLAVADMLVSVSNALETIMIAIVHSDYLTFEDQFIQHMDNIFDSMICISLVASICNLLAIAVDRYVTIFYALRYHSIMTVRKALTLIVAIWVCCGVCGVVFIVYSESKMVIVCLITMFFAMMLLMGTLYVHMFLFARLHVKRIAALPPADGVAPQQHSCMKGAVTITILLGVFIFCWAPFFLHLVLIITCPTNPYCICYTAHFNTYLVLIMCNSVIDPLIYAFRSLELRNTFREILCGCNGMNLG
Chain of Mitogen-activated protein kinase 14 (Q16539 whole entry): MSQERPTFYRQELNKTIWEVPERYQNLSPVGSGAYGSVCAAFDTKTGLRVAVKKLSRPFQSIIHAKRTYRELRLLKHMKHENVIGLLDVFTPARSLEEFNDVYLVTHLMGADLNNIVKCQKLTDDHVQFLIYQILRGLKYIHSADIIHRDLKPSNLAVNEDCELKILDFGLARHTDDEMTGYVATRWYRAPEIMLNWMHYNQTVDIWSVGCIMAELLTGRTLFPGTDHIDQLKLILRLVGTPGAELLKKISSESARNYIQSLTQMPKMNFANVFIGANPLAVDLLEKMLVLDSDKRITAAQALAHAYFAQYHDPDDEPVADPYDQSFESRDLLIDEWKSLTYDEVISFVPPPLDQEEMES
Chain of Sodium-dependent dopamine transporter (Q01959 whole entry): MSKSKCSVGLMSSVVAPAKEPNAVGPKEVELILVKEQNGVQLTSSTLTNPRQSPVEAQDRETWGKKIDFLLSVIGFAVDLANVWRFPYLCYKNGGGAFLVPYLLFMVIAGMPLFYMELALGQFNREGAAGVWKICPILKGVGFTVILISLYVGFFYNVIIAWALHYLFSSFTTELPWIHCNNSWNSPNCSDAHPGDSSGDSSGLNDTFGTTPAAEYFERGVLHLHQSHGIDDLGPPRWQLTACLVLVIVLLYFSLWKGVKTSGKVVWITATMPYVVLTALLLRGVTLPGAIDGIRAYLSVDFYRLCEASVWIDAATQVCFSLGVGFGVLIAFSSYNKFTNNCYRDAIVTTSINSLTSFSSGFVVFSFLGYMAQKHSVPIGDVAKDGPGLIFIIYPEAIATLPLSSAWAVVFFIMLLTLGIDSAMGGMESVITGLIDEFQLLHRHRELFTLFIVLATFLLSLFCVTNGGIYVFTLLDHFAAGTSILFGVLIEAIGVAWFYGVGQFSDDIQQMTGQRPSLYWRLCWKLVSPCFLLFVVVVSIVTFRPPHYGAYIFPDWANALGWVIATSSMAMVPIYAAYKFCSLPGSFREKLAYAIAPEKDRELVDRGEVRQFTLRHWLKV

Row | Compound | IC50 [1] | Ki [1] | IC50 [2] | IC50 (Thromboxane-A synthase; platelet) | IC50 ([3]; cho-k1) | IC50 [4] | IC50 [5] | IC50 [6] | IC50 (Melanocortin receptor 3) | IC50 [7] | Ki [7] | IC50 (Progesterone receptor) | IC50 [8] | IC50 [9] | IC50 [10] | IC50 [11] | further results
1 | NC(CO)(CO)CO [TROMETHAMINE] | Not Active | Not Active | Not Active | Not Active | Not Active | Not Active | Not Active | Not Active | Not Active | Not Active | Not Active | Not Active | Not Active | Not Active | Not Active | Not Active | 
2 | COC(=O)C1=C(C)NC(C)=C(C(=O)OC)C1c1ccccc1[N+](=O)[O-] [NIFEDIPINE] |  |  | Not Active |  |  | Not Active | Not Active | Not Active | Not Active | Not Active | Not Active | Not Active | Not Active | Not Active | Not Active | Not Active | IC50 ([1]; read-out: IC50): 23800 nM; Ki ([1]; read-out: Ki): 8150 nM; IC50 (Thromboxane-A synthase; read-out: IC50): 18600 nM; IC50 ([3]; read-out: IC50): 2190 nM; Ki ([3]; read-out: Ki): 847 nM
3 | CC[C@H]1OC(=O)[C@H](C)[C@@H](O[C@H]2C[C@@](C)(OC)[C@@H](O)[C@H](C)O2)[C@H](C)[C@@H](O[C@@H]2O[C@H](C)C[C@H](N(C)C)[C@H]2O)[C@](C)(O)C[C@@H](C)/C(=N\OCOCCOC)[C@H](C)[C@@H](O)[C@]1(C)O [ROXITHROMYCIN] | Not Active | Not Active | Not Active | Not Active | Not Active | Not Active | Not Active | Not Active | Not Active | Not Active | Not Active | Not Active | Not Active | Not Active | Not Active | Not Active | 
4 | CC(C)[C@H](N)C(=O)OCCOCn1cnc2c(=O)nc(N)[nH]c21 [VALACYCLOVIR] | Not Active | Not Active | Not Active | Not Active | Not Active | Not Active | Not Active | Not Active | Not Active | Not Active | Not Active | Not Active | Not Active | Not Active | Not Active | Not Active | 
5 | NC(=O)c1ncn([C@@H]2O[C@H](CO)[C@@H](O)[C@H]2O)n1 [RIBAVIRIN] | Not Active | Not Active | Not Active | Not Active | Not Active | Not Active | Not Active | Not Active | Not Active | Not Active | Not Active | Not Active | Not Active | Not Active | Not Active | Not Active | 
6 | COC(=O)c1ccc(O)cc1 [METHYLPARABEN] | Not Active | Not Active | Not Active | Not Active | Not Active | Not Active | Not Active | Not Active | Not Active | Not Active | Not Active | Not Active | Not Active | Not Active | Not Active | Not Active | 
7 | COc1ccc(C(CN(C)C)C2(O)CCCCC2)cc1 (stereo not given) [VENLAFAXINE] | Not Active | Not Active | Not Active | Not Active | Not Active | Not Active | Not Active | Not Active | Not Active | Not Active | Not Active | Not Active | Not Active | Not Active | Not Active | Not Active | 
8 | CC1=C(/C=C/C(C)=C/C=C/C(C)=C\C(=O)O)C(C)(C)CCC1 [ISOTRETINOIN] | Not Active | Not Active | Not Active | Not Active | Not Active | Not Active | Not Active | Not Active | Not Active | Not Active | Not Active | Not Active | Not Active |  |  | Not Active | IC50 ([9]; read-out: IC50): 462 nM; IC50 ([10]; read-out: IC50): 2530 nM
9 | CO[C@@H]1[C@@H](O[C@@H]2O[C@H](C)[C@@H](O[C@H]3C[C@@](C)(O)[C@@H](OC(=O)CC(C)C)[C@H](C)O3)[C@H](N(C)C)[C@H]2O)[C@@H](CC=O)C[C@@H](C)[C@@H](O)/C=C/C=C/C[C@@H](C)OC(=O)C[C@H]1O [KITASAMYCIN] | Not Active | Not Active | Not Active | Not Active | Not Active | Not Active | Not Active | Not Active | Not Active | Not Active | Not Active | Not Active | Not Active | Not Active | Not Active | Not Active | 
